From the NIST ThermoML archive (doi:10.1021/je400835u)

Experiment: xn = mol fraction of the nth substance listed
Conditions: 100 kPa, Liquid; for viscosity: Falling or rolling sphere viscometry; for mass density: Vibrating tube method

CCCCC1CCCCC1 [butylcyclohexane] + CCCCCCCCC
Conditions | mass density, 293.15 K [kg/m3] | mass density, 298.15 K [kg/m3] | mass density, 303.15 K [kg/m3] | mass density, 308.15 K [kg/m3] | mass density, 313.15 K [kg/m3] | viscosity, 293.15 K [mPa·s] | viscosity, 298.15 K [mPa·s] | viscosity, 303.15 K [mPa·s] | viscosity, 308.15 K [mPa·s] | viscosity, 313.15 K [mPa·s]
x1 = 0.0496 | 721.95 | 718.07 | 714.19 | 710.29 | 706.36 | 0.745 | 0.698 | 0.659 | 0.621 | 0.588
x1 = 0.1008 | 726.12 | 722.26 | 718.38 | 714.48 | 710.57 | 0.764 | 0.718 | 0.677 | 0.638 | 0.603
x1 = 0.2011 | 734.29 | 730.45 | 726.59 | 722.71 | 718.81 | 0.807 | 0.754 | 0.712 | 0.668 | 0.63
x1 = 0.3005 | 742.39 | 738.56 | 734.71 | 730.85 | 726.97 | 0.852 | 0.794 | 0.745 | 0.698 | 0.659
x1 = 0.3997 | 750.46 | 746.65 | 742.81 | 738.96 | 735.1 | 0.901 | 0.836 | 0.783 | 0.733 | 0.692
x1 = 0.4999 | 758.62 | 754.82 | 751 | 747.17 | 743.32 | 0.956 | 0.885 | 0.827 | 0.774 | 0.729
x1 = 0.5987 | 766.67 | 762.89 | 759.08 | 755.26 | 751.43 | 1.015 | 0.94 | 0.876 | 0.82 | 0.77
x1 = 0.7011 | 775.04 | 771.26 | 767.46 | 763.66 | 759.85 | 1.081 | 1.002 | 0.934 | 0.873 | 0.817
x1 = 0.8001 | 783.13 | 779.35 | 775.57 | 771.78 | 767.98 | 1.152 | 1.068 | 0.996 | 0.927 | 0.866
x1 = 0.8996 | 791.25 | 787.5 | 783.73 | 779.96 | 776.17 | 1.223 | 1.135 | 1.052 | 0.98 | 0.915
x1 = 0.9504 | 795.39 | 791.64 | 787.88 | 784.11 | 780.33 | 1.262 | 1.166 | 1.08 | 1.005 | 0.938
x1 = 1 | 799.44 | 795.7 | 791.95 | 788.19 | 784.41 | 1.296 | 1.196 | 1.107 | 1.027 | 0.958

CCCCC1CCCCC1 [butylcyclohexane] + CCCCCCCCCC
Conditions | mass density, 293.15 K [kg/m3] | mass density, 298.15 K [kg/m3] | mass density, 303.15 K [kg/m3] | mass density, 308.15 K [kg/m3] | mass density, 313.15 K [kg/m3] | viscosity, 293.15 K [mPa·s] | viscosity, 298.15 K [mPa·s] | viscosity, 303.15 K [mPa·s] | viscosity, 308.15 K [mPa·s] | viscosity, 313.15 K [mPa·s]
x1 = 0.0508 | 733.71 | 729.95 | 726.17 | 722.37 | 718.56 | 0.944 | 0.879 | 0.82 | 0.767 | 0.72
x1 = 0.1001 | 736.83 | 733.07 | 729.29 | 725.5 | 721.69 | 0.956 | 0.89 | 0.831 | 0.778 | 0.73
x1 = 0.1992 | 743.19 | 739.43 | 735.66 | 731.87 | 728.07 | 0.984 | 0.914 | 0.853 | 0.798 | 0.748
x1 = 0.2994 | 749.74 | 745.99 | 742.22 | 738.44 | 734.64 | 1.014 | 0.94 | 0.877 | 0.819 | 0.768
x1 = 0.3996 | 756.42 | 752.67 | 748.91 | 745.13 | 741.34 | 1.047 | 0.969 | 0.903 | 0.842 | 0.789
x1 = 0.5002 | 763.27 | 759.53 | 755.76 | 751.99 | 748.2 | 1.084 | 1.003 | 0.932 | 0.869 | 0.813
x1 = 0.5955 | 769.88 | 766.14 | 762.38 | 758.61 | 754.83 | 1.122 | 1.037 | 0.963 | 0.897 | 0.84
x1 = 0.6988 | 777.19 | 773.45 | 769.7 | 765.93 | 762.15 | 1.166 | 1.078 | 1.001 | 0.931 | 0.871
x1 = 0.8012 | 784.6 | 780.86 | 777.11 | 773.34 | 769.57 | 1.21 | 1.121 | 1.039 | 0.966 | 0.902
x1 = 0.8998 | 791.88 | 788.15 | 784.4 | 780.63 | 776.86 | 1.253 | 1.159 | 1.074 | 0.998 | 0.932
x1 = 0.9497 | 795.63 | 791.89 | 788.14 | 784.37 | 780.61 | 1.275 | 1.178 | 1.091 | 1.013 | 0.946
x1 = 1 | 799.44 | 795.7 | 791.95 | 788.19 | 784.41 | 1.296 | 1.196 | 1.107 | 1.027 | 0.958

CCCCC1CCCCC1 [butylcyclohexane] + CCCCCCCCCCCC
Conditions | mass density, 293.15 K [kg/m3] | mass density, 298.15 K [kg/m3] | mass density, 303.15 K [kg/m3] | mass density, 308.15 K [kg/m3] | mass density, 313.15 K [kg/m3] | viscosity, 293.15 K [mPa·s] | viscosity, 298.15 K [mPa·s] | viscosity, 303.15 K [mPa·s] | viscosity, 308.15 K [mPa·s] | viscosity, 313.15 K [mPa·s]
x1 = 0.0511 | 750.97 | 747.36 | 743.73 | 740.1 | 736.45 | 1.492 | 1.369 | 1.258 | 1.157 | 1.07
x1 = 0.0989 | 752.88 | 749.26 | 745.63 | 741.99 | 738.34 | 1.486 | 1.363 | 1.251 | 1.152 | 1.067
x1 = 0.2004 | 757.06 | 753.44 | 749.8 | 746.15 | 742.5 | 1.467 | 1.346 | 1.238 | 1.14 | 1.056
x1 = 0.3002 | 761.38 | 757.75 | 754.1 | 750.45 | 746.78 | 1.45 | 1.331 | 1.224 | 1.128 | 1.047
x1 = 0.4012 | 765.97 | 762.34 | 758.68 | 755.02 | 751.35 | 1.431 | 1.314 | 1.21 | 1.117 | 1.036
x1 = 0.5005 | 770.74 | 767.1 | 763.43 | 759.76 | 756.07 | 1.415 | 1.298 | 1.196 | 1.106 | 1.026
x1 = 0.6006 | 775.82 | 772.16 | 768.48 | 764.8 | 761.1 | 1.393 | 1.279 | 1.18 | 1.091 | 1.013
x1 = 0.7008 | 781.21 | 777.53 | 773.83 | 770.13 | 766.43 | 1.373 | 1.262 | 1.165 | 1.078 | 1.002
x1 = 0.7998 | 786.85 | 783.16 | 779.45 | 775.73 | 771.99 | 1.351 | 1.244 | 1.15 | 1.064 | 0.99
x1 = 0.8996 | 792.92 | 789.21 | 785.47 | 781.73 | 777.98 | 1.331 | 1.226 | 1.134 | 1.049 | 0.978
x1 = 0.9494 | 796.1 | 792.38 | 788.64 | 784.9 | 781.13 | 1.32 | 1.216 | 1.126 | 1.04 | 0.969
x1 = 1 | 799.44 | 795.7 | 791.95 | 788.19 | 784.41 | 1.296 | 1.196 | 1.107 | 1.027 | 0.958
